In US20130039905A1 (Neurotec Pharma, S.L., priority 2010, published 2013):
“Also recorded” adds a separate entry of the source.

Experiments:
[1] = test system: bupivacaine-induced actute CNS toxicity; details: 100 mg/kg (300 mg/m^2), mice; cited from earlier work
EAE mice [2] = test: EAE in mice, treatment starting at immunization (pre-treatment, Example 2); type: in vivo; details: for global mean decrease of the clinical score (Area Under the Curve vs placebo): pre-treatment
EAE mice [3] = test: EAE in mice, treatment after first clinical signs (post-treatment, Example 3); type: in vivo; details: for global mean decrease of the clinical score (Area Under the Curve vs placebo): post-treatment
Protocol: Experimental Autoimmune Encephalomyelitis induction and clinic scoring of mice were performed as described on Example 2.
The day scoring a value of 1, every mouse was randomly assigned to a diazoxide-treatment or placebo-control group. The period of treatment was 15 days and the drug was dissolved in a vehicle consisting in 98.5% water plus 1.5% of dimetyl sulfoxide (Sigma-Aldrich, St. Louis, Mo., USA) and was administered daily orally by gavage (p.o.), in a dose volume of 200 μl. […] One placebo-control group received a daily oral administration of vehicle.
The non-parametric Mann-Whitney-Wilcoxon test was performed to establish the differences between the treated groups and control group for each day. p<0.05 was considered as significant. To test the global effect of the treatment along all the study, the Area Under the Curve of treated groups and control group was compared using One-Way-Anova test. p<0.05 was considered as significant.

[4] = Glycemia in mice receiving daily oral diazoxide (Example 1); type: in vivo; details: 30 days, female C57BL/6J mice, blood glucose at time 0 and 60 minutes
Protocol: Female C57BL/6J mice, 11 weeks of age, were purchased from Charles River and maintained on a 12:12 hr light:dark cycle, with standard chow and water freely available. The experiments began at 11:00 h. […] From day 4 on, glucose blood levels were measured every 3-4 days during the 30-day treatment period. Measurements were performed immediately before drug administration (time 0) and at 60 minutes. Blood samples were obtained from the saphenous vein and glucose levels were determined using a glucometer and glucose test strips (Accu-Chek® Aviva, Roche Diagnostics, Indianapolis, Ind, USA). For each group, hyperglycemia was considered when glucose concentration was equal or higher than 176 mg/dl.

CC1=NS(=O)(=O)c2cc(Cl)ccc2N1 [Diazoxide]
period of latency of the convulsions caused by bupivacaine [1]: increasing the period of latency of the convulsions | global mean decrease of the clinical score (Area Under the Curve vs placebo) (EAE mice [2]; 0,8 mg/Kg (2.4 mg/m^2) daily p.o., p<0,01): 26% | daily EAE clinical score compared to control group (EAE mice [2]; 0.025 mg/kg (0.075 mg/m^2) daily p.o. for 30 days from immunization): significant difference at days fourteen, fifteen, eighteen and nineteen | daily EAE clinical score compared to placebo control group (EAE mice [2]; 0.8 mg/kg (2.4 mg/m^2) daily p.o. for 30 days from immunization): significantly lower at day thirteen and from day twenty-five to thirty; also recorded: significant in seven non-consecutive days | global mean decrease of the clinical score (Area Under the Curve vs placebo) (EAE mice [2]; 0,025 mg/Kg (0.075 mg/m^2) daily p.o., p<0.05): 26% | mean value for clinical score compared to control group after day 13 post-immunization (EAE mice [2]; all dosages tested (0.025 and 0.8 mg/kg) daily p.o. from immunization): better mean value for clinical score | daily EAE clinical score compared to control group (EAE mice [3]; 0.05 mg/kg (0.15 mg/m^2) daily p.o. for 15 days from score 1): significant difference at the final phase of the study (day 15) | global mean decrease of the clinical score (Area Under the Curve vs placebo) (EAE mice [3]; 0.05 mg/kg (0.15 mg/m^2) daily p.o.): 19% | daily EAE clinical score compared to placebo-control group (EAE mice [3]; 0.8 mg/kg (2.4 mg/m^2) daily p.o. for 15 days from score 1, day six to day fifteen): all clinical values were significantly lower; also recorded: significant reduction of the daily clinical score in ten consecutive days | global mean decrease of the clinical score (Area Under the Curve vs placebo) (EAE mice [3]; 1 mg/kg (3 mg/m^2) daily p.o., p<0.05): 40% | daily EAE clinical score compared to control group (EAE mice [3]; 4 mg/kg (12 mg/m^2) daily p.o. for 15 days from score 1): significant reduction in the clinical score at day four and at day five | global mean decrease of the clinical score (Area Under the Curve vs placebo) (EAE mice [3]; 4 mg/kg (12 mg/m^2) daily p.o.): 15% | morbidity and mean daily clinical score compared to placebo-control group (EAE mice [3]; 0.05, 0.8 and 1 mg/kg daily p.o. for 15 days from score 1): significant reduction of morbidity and of the mean daily clinical score | daily EAE clinical score compared to placebo-control group (EAE mice [3]; 1 lmg/kg (3 mg/m^2) daily p.o. for 15 days from score 1, day four to day fifteen): significantly lower from day four | hyperglycemia (glucose concentration equal or higher than 176 mg/dl) ([4]; 0.05 mg/kg (0,15 mg/m^2) daily p.o.): none of the two doses tested in this study produced hyperglycemia | hyperglycemia (glucose concentration equal or higher than 176 mg/dl) ([4]; 1 mg/kg (3 mg/m^2) daily p.o.): none of the two doses tested in this study produced hyperglycemia
